Experimental data published in BigSolDB 2.1.

CC1(C)O[C@H]2CC(=O)OC[C@]23[C@H]2CC[C@@]4(C)[C@H](c5ccoc5)OC(=O)[C@H]5O[C@]54[C@]2(C)C(=O)C[C@@H]13
solubility (mole fraction)
Details	283.2 K	288.2 K	293.2 K	298.2 K	303.2 K	308.2 K	313.2 K	318.2 K
in acetone	0.00409	0.00454	0.00465	0.00471	0.00474	0.00497	0.00516	0.0055
in methanol	7.08e-05	7.81e-05	9.2e-05	0.000101	0.00012	0.000137	0.000162	0.000192
in water	1.17e-07	2.37e-07	4.77e-07	5.97e-07	8.3e-07	1.04e-06	1.17e-06	1.49e-06
